Consider 3 compounds from ChEMBL document CHEMBL4145625 (J Med Chem, 2018).

Structures are written as SMILES. ≈ marks a conversion by molar mass, not a printed value. Where only a bound is given, the exact number is not on record here.

Series [1] concerns the target Phosphatidylinositol 4,5-bisphosphate 3-kinase catalytic subunit alpha isoform (Homo sapiens, UniProt P42336). Nature of the series: Inhibition of PI3Kalpha (unknown origin) using PIP2 as substrate by Kinase-Glo assay. (In general: Kinase-Glo measures the ATP left after a reaction by luminescence.)
Series [2] has as its system NCI-H460. Nature of the series: cells. The series is classed as functional, cell-based. The following applies: Homo sapiens, NCI-H460, 96 h.
Description: Cytotoxicity against human NCI-H460 cells after 96 hrs by MTT assay
Series [3] addresses Phosphatidylinositol 4,5-bisphosphate 3-kinase catalytic subunit beta isoform (Homo sapiens, UniProt P42338). Nature of the series: Inhibition of PI3Kbeta (unknown origin) using PIP2 as substrate by ADP-Glo assay. Background: In ADP-Glo the light output rises with the ADP produced.
The target in series [4] is Phosphatidylinositol 4,5-bisphosphate 3-kinase catalytic subunit gamma isoform (Homo sapiens, UniProt P48736). The series can be described thus: Inhibition of PI3Kgamma (unknown origin) using PIP2 as substrate by ADP-Glo assay.
The subject of series [5] is HGC-27. Nature of the series: cells. The series is classed as functional, cell-based. The following applies: Homo sapiens, HGC-27, 96 h.
Description: Cytotoxicity against human HGC27 cells after 96 hrs by MTT assay
The test system of series [6] is PC-3. The series can be described thus: cells. The series is classed as functional, cell-based. The following applies: Homo sapiens, PC-3, 96 h.
Description: Cytotoxicity against human PC3 cells after 96 hrs by MTT assay
The subject of series [7] is HGC-27. Nature of the series: Antitumor activity against human HGC27 cells xenografted in BALB/c nude mouse assessed as tumor growth inhibition at […], po administered once daily for 15 days measured at post last dose relative to control. The series is classed as functional. The following applies: HGC-27, po, 360 h, read-out: TGI. On the technique in general: Xenograft models place foreign cells or tissue in a host animal.

The test system of series [8] is Mus musculus. Nature of the series: Toxicity in human HGC27 cells xenografted in BALB/c nude mouse assessed as reduction in body weight at […], po administered once daily for 15 days measured at post last dose. The series is classed as organism-based. The following applies: in vivo, 360 h.
Series [9] relates to U-87 MG. The series can be described thus: Antitumor activity against Luc tagged human U87MG cells xenografted in BALB/c nude mouse glioblastoma orthotopic model assessed as tumor growth inhibition at 5 mg/kg, po qd by MRI method relative to control. The series is classed as functional, U-87MG ATCC. The following applies: read-out: TGI.
Series [10] relates to Mus musculus. Nature of the series: In vivo inhibition of PI3Kalpha in po dosed athymic BALB/c nude mouse xenografted with human NCI-H460 cells administered as single dose via gavage after 2 to 24 hrs. The series is classed as functional, organism-based.
For series [11], the system named is NCI-H460. The series can be described thus: Antitumor activity against human NCI-H460 cells xenografted in po dosed athymic BALB/c nude mouse administered as single dose via gavage after 2 to 24 hrs. The series is classed as functional, organism-based.
Series [12] has as its system Salmonella typhimurium. Nature of the series: Mutagenicity in Salmonella typhimurium TA98 at 500 ug/plate after 72 hrs by Ames test. The following applies: salmonella enterica subsp. enterica serovar typhimurium. The series is classed as toxicity, organism-based.
The test system of series [13] is Salmonella typhimurium. Nature of the series: Mutagenicity in Salmonella typhimurium TA100 at 500 ug/plate after 72 hrs by Ames test. The series is classed as toxicity, organism-based. The following applies: salmonella enterica subsp. enterica serovar typhimurium.
Series [14] has as its system Salmonella typhimurium. Nature of the series: Mutagenicity in Salmonella typhimurium TA1535 at 500 ug/plate after 72 hrs by Ames test. The series is classed as toxicity, organism-based. The following applies: salmonella enterica subsp. enterica serovar typhimurium.
In series [15] the test system is Salmonella typhimurium. The series can be described thus: Mutagenicity in Salmonella typhimurium TA1535 up at 50 ug/plate after 72 hrs in presence of S9 fraction by Ames test. The series is classed as toxicity, organism-based. The following applies: salmonella enterica subsp. enterica serovar typhimurium, s9, 72 h.
The test system of series [16] is Salmonella typhimurium. The series can be described thus: Mutagenicity in Salmonella typhimurium TA97 at 500 ug/plate after 72 hrs by Ames test. The following applies: salmonella enterica subsp. enterica serovar typhimurium. The series is classed as toxicity, organism-based.
Series [17] has as its target Cytochrome P450 2C9 (Homo sapiens, UniProt P11712).
Description: Inhibition of CYP2C9 in human liver microsomes assessed as reduction in 4-Hydroxydiclofenac formation using diclofenac as substrate after 10 to 20 mins in presence of NADPH by LC-MS/MS analysis
For series [18] the following is noted: mouse, in vivo, po, 10 mg/kg, 24 h.
Series [19] can be described thus: in vivo. The following applies: ICR, mouse, plasma, iv, 3 mg/kg.
Description: Clearance in ICR mouse plasma at 3 mg/kg, iv by LC/MS/MS analysis
A short description of series [20]: in vivo. The following applies: ICR, mouse, brain, po, 30 mg/kg.
The nature of series [21]: in vivo. The following applies: athymic BALB/c nude, mouse, plasma, po, 10 mg/kg.
The nature of series [22]: in vivo. The following applies: ICR, mouse, po.
Description: Toxicity in po dosed ICR mouse administered as single dose via oral gavage measured after 14 days
The nature of series [23]: in vitro. The following applies: human, plasma.
Description: Protein binding in human plasma at 2 uM after 6 hrs by LC-MS/MS analysis
Series [24] in a line: in vitro. The following applies: ICR, mouse, plasma.
Description: Protein binding in ICR mouse plasma at 2 uM after 6 hrs by LC-MS/MS analysis
Series [25] deals with NCI-H460. The series can be described thus: Antitumor activity against human NCI-H460 cells xenografted in BALB/c nude mouse assessed as tumor growth inhibition at 20 mg/kg, po administered once daily after 16 days relative to control. The following applies: 384 h, read-out: TGI. The series is classed as functional.
In series [26] the test system is NCI-H460. Nature of the series: Antitumor activity against human NCI-H460 cells xenografted in BALB/c nude mouse assessed as tumor growth inhibition at 10 mg/kg, po administered once daily after 16 days relative to control. The series is classed as functional. The following applies: 384 h, read-out: TGI.
Series [27] relates to NCI-H460. Nature of the series: Antitumor activity against human NCI-H460 cells xenografted in BALB/c nude mouse assessed as tumor growth inhibition at 5 mg/kg, po administered once daily after 16 days relative to control. The following applies: 384 h, read-out: TGI. The series is classed as functional.
Series [28] relates to MGC-803. The series can be described thus: Antitumor activity against human MGC803 cells xenografted in BALB/c nude mouse assessed as tumor growth inhibition at 5 mg/kg, po administered once daily for 18 days measured at post last dose relative to control. The series is classed as functional. The following applies: MGC-803, po, 432 h, read-out: TGI.
Series [29] concerns MGC-803. Nature of the series: Antitumor activity against human MGC803 cells xenografted in BALB/c nude mouse assessed as tumor growth inhibition at 10 mg/kg, po administered once daily for 18 days measured at post last dose relative to control. The series is classed as functional. The following applies: MGC-803, po, 432 h, read-out: TGI.
Series [30] deals with MGC-803. Nature of the series: Antitumor activity against human MGC803 cells xenografted in BALB/c nude mouse assessed as tumor growth inhibition at 20 mg/kg, po administered once daily for 18 days measured at post last dose relative to control. The series is classed as functional. The following applies: MGC-803, po, 432 h, read-out: TGI.
Series [31] relates to HGC-27. The series can be described thus: Antitumor activity against human HGC27 cells xenografted in BALB/c nude mouse assessed as tumor growth inhibition at 5 mg/kg, po administered once daily for 15 days measured at post last dose relative to control. The series is classed as functional. The following applies: HGC-27, po, 360 h, read-out: TGI.
Series [32] relates to HGC-27. Nature of the series: Antitumor activity against human HGC27 cells xenografted in BALB/c nude mouse assessed as tumor growth inhibition at 10 mg/kg, po administered once daily for 15 days measured at post last dose relative to control. The series is classed as functional. The following applies: HGC-27, po, 360 h, read-out: TGI.
In series [33] the test system is Mus musculus. Nature of the series: Toxicity in human NCI-H460 cells xenografted BALB/c nude mouse assessed as reduction in body weight at 5 to 20 mg/kg, po administered once daily after 16 days. The series is classed as organism-based. The following applies: in vivo, 384 h.
The subject of series [34] is Mus musculus. Nature of the series: Toxicity in human MGC803 cells xenografted BALB/c nude mouse assessed as reduction in body weight at 5 to 20 mg/kg, po administered daily for 18 days measured at post last dose. The following applies: in vivo, 432 h. The series is classed as organism-based.
In series [35] the test system is NCI-H460. The following applies: Homo sapiens.
Description: Antitumor activity against human NCI-H460 cells xenografted in po dosed BALB/c nude mouse assessed as tumor growth inhibition administered once daily after 16 days
For series [36], the system named is MGC-803. The following applies: Homo sapiens.
Description: Antitumor activity against human MGC803 cells xenografted in po dosed BALB/c nude mouse assessed as tumor growth inhibition administered once daily measured at post last dose
Series [37] has as its system Mus musculus. Nature of the series: Toxicity in human HGC27 cells xenografted BALB/c nude mouse assessed as reduction in body weight at 10 mg/kg, po administered once daily for 15 days measured at post last dose. The series is classed as organism-based. The following applies: in vivo, 360 h.

Chain of Phosphatidylinositol 4,5-bisphosphate 3-kinase catalytic subunit gamma isoform (P48736 whole entry, canonical isoform): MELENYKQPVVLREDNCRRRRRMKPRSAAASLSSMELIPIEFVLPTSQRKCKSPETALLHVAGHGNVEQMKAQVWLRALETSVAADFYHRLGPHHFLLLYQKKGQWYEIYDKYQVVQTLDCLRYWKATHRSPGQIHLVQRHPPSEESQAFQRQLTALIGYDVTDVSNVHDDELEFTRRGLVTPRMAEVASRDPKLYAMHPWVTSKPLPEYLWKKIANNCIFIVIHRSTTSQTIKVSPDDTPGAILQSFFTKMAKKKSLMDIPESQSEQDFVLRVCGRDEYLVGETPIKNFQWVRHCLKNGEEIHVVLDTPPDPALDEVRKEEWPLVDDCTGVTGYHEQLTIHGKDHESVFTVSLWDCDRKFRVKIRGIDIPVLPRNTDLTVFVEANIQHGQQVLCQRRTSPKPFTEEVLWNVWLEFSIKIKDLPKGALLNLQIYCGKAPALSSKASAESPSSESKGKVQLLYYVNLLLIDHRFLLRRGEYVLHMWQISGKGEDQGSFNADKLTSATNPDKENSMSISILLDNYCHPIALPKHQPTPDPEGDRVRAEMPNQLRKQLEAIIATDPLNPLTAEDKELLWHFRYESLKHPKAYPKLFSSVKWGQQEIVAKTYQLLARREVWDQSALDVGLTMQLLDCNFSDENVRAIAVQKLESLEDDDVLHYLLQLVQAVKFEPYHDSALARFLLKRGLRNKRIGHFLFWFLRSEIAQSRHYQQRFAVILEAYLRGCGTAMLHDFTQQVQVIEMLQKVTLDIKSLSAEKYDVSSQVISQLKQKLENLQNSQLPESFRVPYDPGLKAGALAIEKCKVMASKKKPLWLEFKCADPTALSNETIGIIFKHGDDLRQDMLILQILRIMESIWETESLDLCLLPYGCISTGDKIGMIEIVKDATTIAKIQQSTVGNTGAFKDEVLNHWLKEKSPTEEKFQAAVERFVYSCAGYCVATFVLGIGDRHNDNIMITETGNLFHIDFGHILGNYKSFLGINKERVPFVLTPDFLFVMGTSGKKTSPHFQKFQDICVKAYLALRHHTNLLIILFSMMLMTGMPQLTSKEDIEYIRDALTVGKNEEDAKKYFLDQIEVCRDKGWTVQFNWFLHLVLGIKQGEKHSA
Chain of Cytochrome P450 2C9 (P11712 whole entry): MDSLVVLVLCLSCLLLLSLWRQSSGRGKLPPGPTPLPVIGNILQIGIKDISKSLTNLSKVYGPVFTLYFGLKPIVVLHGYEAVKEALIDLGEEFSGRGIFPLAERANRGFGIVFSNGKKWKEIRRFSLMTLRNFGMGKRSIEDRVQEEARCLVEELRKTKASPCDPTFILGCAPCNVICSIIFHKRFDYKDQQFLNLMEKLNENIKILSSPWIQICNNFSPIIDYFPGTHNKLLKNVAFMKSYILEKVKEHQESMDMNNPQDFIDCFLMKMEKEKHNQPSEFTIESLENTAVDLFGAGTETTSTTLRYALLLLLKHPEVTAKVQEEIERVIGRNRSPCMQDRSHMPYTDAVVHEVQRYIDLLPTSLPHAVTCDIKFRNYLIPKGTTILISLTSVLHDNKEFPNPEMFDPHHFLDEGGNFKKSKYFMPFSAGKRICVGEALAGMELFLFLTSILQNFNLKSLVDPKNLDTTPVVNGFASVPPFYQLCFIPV
Chain of Phosphatidylinositol 4,5-bisphosphate 3-kinase catalytic subunit alpha isoform (P42336 whole entry, canonical isoform): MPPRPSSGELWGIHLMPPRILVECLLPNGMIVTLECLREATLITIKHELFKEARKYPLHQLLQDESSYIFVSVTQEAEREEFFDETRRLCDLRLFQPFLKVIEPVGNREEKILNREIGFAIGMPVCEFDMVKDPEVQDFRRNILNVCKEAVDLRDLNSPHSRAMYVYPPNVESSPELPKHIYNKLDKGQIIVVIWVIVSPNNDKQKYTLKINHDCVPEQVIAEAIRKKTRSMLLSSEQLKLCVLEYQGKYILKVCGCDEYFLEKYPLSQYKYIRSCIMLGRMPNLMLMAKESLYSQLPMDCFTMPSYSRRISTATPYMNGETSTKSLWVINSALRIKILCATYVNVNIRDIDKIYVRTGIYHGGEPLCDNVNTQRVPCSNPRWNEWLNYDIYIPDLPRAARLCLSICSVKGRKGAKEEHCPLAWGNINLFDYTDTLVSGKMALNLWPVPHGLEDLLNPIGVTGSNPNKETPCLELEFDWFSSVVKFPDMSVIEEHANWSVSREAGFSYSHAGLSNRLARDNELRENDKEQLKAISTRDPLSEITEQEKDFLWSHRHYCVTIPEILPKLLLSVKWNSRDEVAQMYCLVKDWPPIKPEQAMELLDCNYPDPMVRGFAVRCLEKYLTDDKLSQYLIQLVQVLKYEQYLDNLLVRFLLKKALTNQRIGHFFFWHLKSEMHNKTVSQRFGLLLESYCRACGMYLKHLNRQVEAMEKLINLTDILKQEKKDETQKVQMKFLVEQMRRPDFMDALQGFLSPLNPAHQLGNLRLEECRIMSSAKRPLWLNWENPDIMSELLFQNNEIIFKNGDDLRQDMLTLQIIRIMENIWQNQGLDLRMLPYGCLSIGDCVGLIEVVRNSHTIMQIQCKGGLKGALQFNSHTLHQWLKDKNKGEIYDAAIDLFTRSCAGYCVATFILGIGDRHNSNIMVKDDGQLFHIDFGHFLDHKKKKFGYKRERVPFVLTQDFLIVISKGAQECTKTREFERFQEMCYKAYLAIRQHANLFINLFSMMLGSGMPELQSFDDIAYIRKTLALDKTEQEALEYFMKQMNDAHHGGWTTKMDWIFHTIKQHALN
Chain of Phosphatidylinositol 4,5-bisphosphate 3-kinase catalytic subunit beta isoform (P42338 whole entry, canonical isoform): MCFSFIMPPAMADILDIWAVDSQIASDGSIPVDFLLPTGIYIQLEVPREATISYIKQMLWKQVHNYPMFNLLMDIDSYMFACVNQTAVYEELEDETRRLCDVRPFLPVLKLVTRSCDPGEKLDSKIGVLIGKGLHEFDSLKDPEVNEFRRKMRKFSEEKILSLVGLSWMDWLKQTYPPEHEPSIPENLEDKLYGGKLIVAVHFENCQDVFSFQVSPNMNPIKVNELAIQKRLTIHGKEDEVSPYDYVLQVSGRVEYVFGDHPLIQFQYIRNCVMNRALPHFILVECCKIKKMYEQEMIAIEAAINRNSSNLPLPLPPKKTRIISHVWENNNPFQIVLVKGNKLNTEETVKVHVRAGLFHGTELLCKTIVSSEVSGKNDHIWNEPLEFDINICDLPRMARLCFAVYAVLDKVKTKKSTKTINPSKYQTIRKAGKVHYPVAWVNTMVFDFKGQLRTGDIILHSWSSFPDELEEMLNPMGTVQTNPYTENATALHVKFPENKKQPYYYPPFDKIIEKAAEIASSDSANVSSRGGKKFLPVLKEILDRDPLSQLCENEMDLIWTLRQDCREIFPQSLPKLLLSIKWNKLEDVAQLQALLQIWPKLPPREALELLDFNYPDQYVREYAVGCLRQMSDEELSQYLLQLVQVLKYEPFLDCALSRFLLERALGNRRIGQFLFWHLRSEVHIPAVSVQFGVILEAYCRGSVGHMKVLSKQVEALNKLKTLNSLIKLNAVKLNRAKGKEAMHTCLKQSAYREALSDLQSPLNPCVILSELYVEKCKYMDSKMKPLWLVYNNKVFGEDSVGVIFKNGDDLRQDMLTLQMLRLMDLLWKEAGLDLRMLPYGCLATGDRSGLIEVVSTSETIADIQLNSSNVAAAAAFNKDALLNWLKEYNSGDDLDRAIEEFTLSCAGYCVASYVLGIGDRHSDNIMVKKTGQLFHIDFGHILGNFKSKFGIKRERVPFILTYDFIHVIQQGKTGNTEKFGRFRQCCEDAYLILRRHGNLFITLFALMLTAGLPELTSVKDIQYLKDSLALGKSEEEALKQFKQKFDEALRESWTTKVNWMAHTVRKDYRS

Take `CNc1nc(C)c2cc(-c3cnc(OC)c(NS(=O)(=O)c4ccc(F)cc4F)c3)cc(OC3CCOCC3)c2n1`: the IC50 (usually the concentration that gives 50% inhibition) in series [1] is 1.4 nM; in [2] it was 59 nM; in series [3], 1.2 nM; in series [4] it was 1.7 nM; in series [5], 16 nM; in [6], 380 nM. In addition, the IC50 in series [10] (Mus musculus, BALB/c, NCI-H460) was 0.8 ng/mL (≈ 1.4 nM); in [11], 34 ng/mL (≈ 59.5 nM); in [17], over 10000 nM. Further, the inhibition in vivo at […] in series [7] was determined as 94.1%. The Activity entry in series [8], in series [12], in series [13], in series [14], in series [15] and in series [16] was “Toxic” in each case. The inhibition in vivo at 5 mg/kg in series [9] worked out at 96%. Further, the IC90 (as a rule, the concentration needed for an effect of 90%) in series [10] amounted to 4 ng/mL (≈ 7 nM). In series [18], this compound displayed an AUC of 5576 ng·h/g. Also, in [19], the clearance (in general, a measure of how efficiently the substance is removed, as volume per time) came out at 14.3 mL/min/kg. Besides, the Cmax (usually the highest concentration seen after dosing) in series [20] is 723 ng/g. Besides, in series [21], the AUC(0-t) (commonly exposure summed from dosing to a finite time, without extrapolation to infinity) at 24 h came out at 5460 ng·h/mL. The MTD at 336 h in [22] was over 40 mg/kg. In addition, the fraction unbound – broadly, free concentration divided by total concentration – at 6 h, 2 µM was 0.0454 in series [23] and 0.0842 in series [24].
As to `COc1ncc(-c2cc(O[C@@H]3CCOC3)c3nc(N)nc(C)c3c2)cc1NS(=O)(=O)c1ccc(F)cc1F`, the IC50 in series [1] amounted to 1 nM; in series [2] it was 93 nM; in series [3], 0.4 nM; in series [4] it was 1.2 nM; in series [5], 56 nM; in [6], 280 nM. This compound also returned an IC50 in [17] of over 10000 nM. The inhibition in vivo at 20 mg/kg turned out to be 75.9% in series [25] and 77.8% in [30]. Besides, the inhibition in vivo at 10 mg/kg in series [26] is 83.1%; in series [29], 69.3%; in series [32], 74.7%. For the same compound, the inhibition in vivo at 5 mg/kg in series [27] stood at 41.9%; in series [28] it was 55.1%; in series [31] it was 36.1%. Further, the Activity entry in [33] and in series [34] was “Toxic” in each case. Moreover, the TGI entry in series [35] and in [36] was “Dose-dependent effect” throughout. Also, the clearance in [19] turned out to be 54.9 mL/min/kg. The same compound gave an MTD at 336 h in series [22] of over 50 mg/kg.
For `CNc1nc(C)c2cc(-c3cnc(OC)c(NS(=O)(=O)c4ccc(F)cc4F)c3)cc(O[C@@H]3CCOC3)c2n1`, the IC50 is 0.96 nM in [1]; 1.1 nM in series [3]; 0.93 nM in series [4]; 27 nM in series [5]; 240 nM in series [6]; over 10000 nM in [17]. In addition, the inhibition in vivo at 10 mg/kg in series [32] is 94.6%. Also, in [37], the Activity result is listed as “Toxic”. The inhibition in vivo at 5 mg/kg in series [9] came out at 89.4%. Moreover, the clearance in series [19] turned out to be 34.5 mL/min/kg. In series [20], the Cmax came out at 433 ng/g. The compound further had an MTD at 336 h in [22] of over 40 mg/kg.
